These results are taken from patent US20150297772A1, “COMPOSITION FOR ODOR REMOVAL AND FRAGRANCE EMISSION COMPRISING COMPLEXES OF CUCURBITURIL AND FRAGRANCE” (POSTECH ACADEMY-INDUSTRY FOUNDATION, priority 2012, published 2015).

Data set [1] can be described thus: exchange of fragrant molecule for odor molecule in cucurbit[7]uril complex, evaluated by 1H-NMR. Type of data set: binding. The procedure: Cucurbit[7]uril was dissolved in distilled water to obtain a 2 mM cucurbit[7]uril aqueous solution. Ethyl butyrate (2 mM), which is a fragrant material, was added to the solution to obtain a complex (cucurbit[7]uril:ethyl butyrate=1:1). The bonding of diallyldisulfide with cucurbituril according to the addition of diallyldisulfide, which is an odor material, and the release of ethyl butyrate according to the addition of diallyldisulfide were evaluated comparing the 1H-NMR peak of the complex after the addition of diallyldisulfide with the 1H-NMR peak of the complex before the addition of diallyldisulfide.
Cucurbit[7]uril was dissolved in distilled water to obtain a 4 mM cucurbit[7]uril aqueous solution. Menthol (4 mM), which is a fragrant material, was added to the solution to obtain a complex (cucurbit[7]uril:menthol=1:1). The bonding of diaminohexane with cucurbituril according to the addition of diaminohexane, which is an odor material, and the release of menthol according to the addition of diaminohexane were evaluated comparing the 1H-NMR peak of the complex after the addition of diaminohexane with the 1H-NMR peak of the complex before the addition of diaminohexane.
Cucurbit[7]uril was dissolved in distilled water to obtain a 4 mM cucurbit[7]uril aqueous solution. Hexanal (4 mM), which is a fragrant material, was added to the solution to obtain a complex (cucurbit[7]uril:hexanal=1:1). The bonding of diaminohexane with cucurbituril according to the addition of diaminohexane, which is an odor material, and the release of hexanal according to the addition of diaminohexane were evaluated comparing the 1H-NMR peak of the complex after the addition of diaminohexane with the 1H-NMR peak of the complex before the addition of diaminohexane.

Data set [2] is described as follows: complex formation of cucurbituril homologues with menthol, analyzed by 1H-NMR. Type of data set: binding. The following applies: slurry with 11.8 mg menthol and 0.5 mL distilled water, molar ratio 1:1, dried complex. Here is the method: A complex was prepared by mixing 100 mg of cucurbit[7]uril and 11.8 mg of menthol at a molar ratio of 1:1. 79.5 mg of cucurbit[6]uril and 118.3 mg of cucurbit[8]uril were respectively put into two mortars, and 11.8 mg of menthol was added to each of the mortars. 0.5 mL of distilled water was added to form a slurry, and then the slurry was stirred for 10 minutes using a pestle to prepare a complex. The complex was dried in an oven at […] for 6 hours. The dried complex was analyzed by 1H-NMR.

The conditions of data set [3]: cited from earlier work.

`NCCCCCCN` [diaminohexane]: in data set [1] (added to cucurbit[7]uril:hexanal=1:1 complex, 4 mM aqueous solution), the “bonding of diaminohexane with cucurbituril (FIG. 5)” value is recorded as “makes a complex with cucurbituril”. In addition, in data set [1] (added to cucurbit[7]uril:menthol=1:1 complex, 4 mM aqueous solution), the “bonding of diaminohexane with cucurbituril (FIG. 4)” value is reported as “makes a complex with cucurbituril”.

Turning to `C=CCSSCC=C` [diallydisulfide, diallyldisulfide], the “bonding of diallyldisulfide with cucurbituril (FIG. 3)” value in data set [1] (added to cucurbit[7]uril:ethyl butyrate=1:1 complex, 2 mM aqueous solution) is on record as “makes a complex with cucurbituril”.

`CC1CCC(C(C)C)C(O)C1` (stereo not shown) [menthol]: in data set [1] (cucurbit[7]uril:menthol=1:1, 4 mM aqueous solution, diaminohexane added), the “release of menthol from the complex (FIG. 4)” value is recorded as “released from the complex”.

With `O=C1N2CN3C(=O)N4CN5C(=O)N6CN7C(=O)N8CN9C(=O)N%10CN%11C(=O)N%12CN1C1C2N2CN%13C(=O)N(CN%14C(=O)N(CN%15C(=O)N(CN%16C(=O)N(CN%17C(=O)N(CN1C2=O)C%12C%11%17)C%10C9%16)C8C7%15)C6C5%14)C4C3%13` (stereo not shown) [cucurbit[6]uril], in data set [2], the “complex formation with menthol (FIG. 2)” value was “barely makes a complex with menthol”.

As for `CCCCCC=O` [hexanal], the “release of hexanal from the complex (FIG. 5)” value in data set [1] (cucurbit[7]uril:hexanal=1:1, 4 mM aqueous solution, diaminohexane added) is “released from the complex”.

Turning to `O=C1N2CN3C(=O)N4CN5C(=O)N6CN7C(=O)N8CN9C(=O)N%10CN%11C(=O)N%12CN%13C(=O)N%14CN%15C(=O)N%16CN1C1C2N2CN%17C(=O)N(CN%18C(=O)N(CN%19C(=O)N(CN%20C(=O)N(CN%21C(=O)N(CN%22C(=O)N(CN%23C(=O)N(CN1C2=O)C%16C%15%23)C%14C%13%22)C%12C%11%21)C%10C9%20)C8C7%19)C6C5%18)C4C3%17` (stereo not shown) [cucurbit[8]uril], the “complex formation with menthol (FIG. 2)” value in data set [2] is “weakly makes a complex with menthol”.

On to cucurbit[7]uril, for which the solubility in water in data set [3] is recorded as 2˜3×10^−2 M. Also, the “complex formation with menthol (FIG. 2)” value in data set [2] is listed as “strongly makes a complex with menthol”.

Take `CCCC(=O)OCC` [ethyl butyrate]: the “release of ethyl butyrate from the complex (FIG. 3)” value in data set [1] (cucurbit[7]uril:ethyl butyrate=1:1, 2 mM aqueous solution, diallyldisulfide added) was “released from the complex”.
